Data from patent US20240132431A1, “METHOD FOR ALKYLATING ACIDIC FUNCTIONAL GROUP” (Chugai Seiyaku Kabushiki Kaisha, priority 2021, published 2024).

Target: T1, Bcl-2 protein (Recombinant Human Bcl-2 Protein) (Homo sapiens, UniProt P10415)
T1 construct: purchased Novus NBP2-34889
Assay: Binding evaluation of mixture library compounds to Bcl-2 using AS-MS (affinity selection mass spectrometry)
Conditions: for ASMS ratio (%) n = 1 / ASMS ratio (%) n = 2: ASMS Ratio(%)=(A−C)/B×100; for ASMS ratio (%) n = 1: replicate n = 1; for ASMS ratio (%) n = 2: replicate n = 2
Outline: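 Readout is ASMS Ratio (%), (A−C)/B×100, from reversed-phase LC/MS of SEC-passed extracts, with protein-free unfiltered standard (B) and protein-free SEC blank (C). Recombinant human Bcl-2 at 20 μM final met ~1200 pooled compounds at […] each for 1 h, 23° C., dark, in Tris-HCl pH 7.4 buffer.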

[1] = AS-MS, mixture of 1200 compounds, Bcl-2
[2] = AS-MS on the mixture of 1200 library compounds

T1 sequence (P10415 whole entry): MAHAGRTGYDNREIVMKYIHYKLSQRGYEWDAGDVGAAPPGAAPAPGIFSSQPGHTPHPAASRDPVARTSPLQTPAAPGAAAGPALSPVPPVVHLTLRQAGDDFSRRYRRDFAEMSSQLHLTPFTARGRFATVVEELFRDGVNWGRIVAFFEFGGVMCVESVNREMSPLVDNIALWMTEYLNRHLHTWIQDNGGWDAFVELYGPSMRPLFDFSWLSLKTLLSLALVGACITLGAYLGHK

Molecule: CCOc1cncc(-c2cc(CN3CCN(c4ccc(C(=O)NCC56CC7CC(CC(C7)C5)C6)nn4)CC3)cc(OC(F)(F)F)c2)c1 [B1A090-01, N-(1-Adamantylmethyl)-6-[4-[[3-(5-ethoxypyridin-3-yl)-5-(trifluoromethoxy)phenyl]methyl]piperazin-1-yl]pyridazine-3-carboxamide]
- ASMS ratio (%) n = 1 [1]: 3.3%
- ASMS ratio (%) n = 2 [1]: −1.0%

Molecule: CCOc1cccc(-c2ccc(CN3CCN(c4ccc(C(=O)N(C)CC56CC7CC(CC(C7)C5)C6)cc4)CC3)cc2C)c1 [B3A047-01, N-(1-Adamantylmethyl)-4-[4-[[4-(3-ethoxyphenyl)-3-methylphenyl]methyl]piperazin-1-yl]-N-methylbenzamide]
- ASMS ratio (%) n = 1 [2]: 1.8%
- ASMS ratio (%) n = 2 [2]: −5.9%

Molecule: CCOc1cncc(-c2ccccc2CN2CCN(c3ccc(C(=O)NS(=O)(=O)CC45CC6CC(CC(C6)C4)C5)nn3)CC2)c1 [B2A072-01]
- ASMS ratio (%) n = 1 (AS-MS, mixture library, Bcl-2): 12.2%
- ASMS ratio (%) n = 2 (AS-MS, mixture library, Bcl-2): 14.7%

Molecule: CCOc1cccc(-c2cc(CN3CCN(c4ccc(C(=O)NS(=O)(=O)c5ccc(NCCSc6ccccc6)c([N+](=O)[O-])c5)nn4)CC3)cc(C(F)(F)F)c2)c1 [B2Q087-01, 6-[4-[[3-(3-Ethoxyphenyl)-5-(trifluoromethyl)phenyl]methyl]piperazin-1-yl]-N-[3-nitro-4-(2-phenylsulfanylethylamino)phenyl]sulfonylpyridazine-3-carboxamide]
- ASMS ratio (%) n = 1 (AS-MS, mixture library, Bcl-2): 17.6%
- ASMS ratio (%) n = 2 (AS-MS, mixture library, Bcl-2): −2.1%

Molecule: CCOc1cncc(-c2ccc(CN3CCN(c4ccc(C(=O)N(C)CC56CC7CC(CC(C7)C5)C6)nn4)CC3)c(CC)c2)c1 [B3A076-01, N-(1-Adamantylmethyl)-6-[4-[[4-(5-ethoxypyridin-3-yl)-2-ethylphenyl]methyl]piperazin-1-yl]-N-methylpyridazine-3-carboxamide]
- ASMS ratio (%) n = 1 [2]: 6.5%
- ASMS ratio (%) n = 2 [2]: −0.9%

Molecule: CCOc1cncc(-c2ccc(CN3CCN(c4ccc(C(=O)NS(C)(=O)=O)nn4)CC3)cc2F)c1 [B2I078-01]
- ASMS ratio (%) (n = 1): 0.0%
- ASMS ratio (%) (n = 2): 0.0%

Molecule: CCOc1cccc(-c2cc(C(=O)N3CCN(c4ccc(C(=O)NS(=O)(=O)C(C)(C)C)nn4)CC3)cc(C(F)(F)F)c2)c1 [B2L017-01, N-tert-Butylsulfonyl-6-[4-[3-(3-ethoxyphenyl)-5-(trifluoromethyl)benzoyl]piperazin-1-yl]pyridazine-3-carboxamide]
- ASMS ratio (%) (n = 1): 0.0%
- ASMS ratio (%) (n = 2): 0.0%

Molecule: CCCNC(=O)c1ccc(N2CCN(Cc3ccc(-c4cncc(OCC)c4)cc3CC)CC2)nn1 [B1M076-01, 6-[4-[[4-(5-Ethoxypyridin-3-yl)-2-ethylphenyl]methyl]piperazin-1-yl]-N-propylpyridazine-3-carboxamide]
- ASMS ratio (%) n = 1 [1]: 0.5%
- ASMS ratio (%) n = 2 [1]: 1.5%

Molecule: CCOc1cccc(-c2ccc(CN3CCN(c4ccc(C(=O)N(CC)CC)nn4)CC3)c(CC)c2)c1 [B4J075-01, 6-[4-[[4-(3-Ethoxyphenyl)-2-ethylphenyl]methyl]piperazin-1-yl]-N,N-diethylpyridazine-3-carboxamide]
- ASMS ratio (%) n = 1 (AS-MS, mixture library, Bcl-2): 0.0%
- ASMS ratio (%) n = 2 (AS-MS, mixture library, Bcl-2): 0.0%

Molecule: CCOc1cccc(-c2csc(CN3CCN(c4ccc(C(=O)NS(=O)(=O)C(C)(C)C)nn4)CC3)c2)c1 [B2L093-01, N-tert-Butylsulfonyl-6-[4-[[4-(3-ethoxyphenyl)thiophen-2-yl]methyl]piperazin-1-yl]pyridazine-3-carboxamide]
- ASMS ratio (%) (n = 2): 0.0%

Molecule: CCOc1cccc(-c2cc(CN3CCN(c4ccc(C(=O)Nc5ccc(OC)cc5)cc4)CC3)cc(OC(F)(F)F)c2)c1 [B1O063-01, 4-[4-[[3-(3-Ethoxyphenyl)-5-(trifluoromethoxy)phenyl]methyl]piperazin-1-yl]-N-(4-methoxyphenyl)benzamide]
- ASMS ratio (%) n = 1 [2]: 3.5%
- ASMS ratio (%) n = 2 [2]: −4.1%

Molecule: CCOc1cncc(-c2ccc(CN3CCN(c4ccc(C(=O)NS(C)(=O)=O)nn4)CC3)c3ccccc23)c1 [B2I092-01, 6-[4-[[4-(5-Ethoxypyridin-3-yl)naphthalen-1-yl]methyl]piperazin-1-yl]-N-methylsulfonylpyridazine-3-carboxamide]
- ASMS ratio (%) (n = 1): 2.6%
- ASMS ratio (%) (n = 2): 0.3%

Molecule: 4-[4-[3-(3-Ethoxyphenyl)-5-(trifluoromethyl)benzoyl]piperazin-1-yl]-N-propylbenzamide [B1M092-01]
- ASMS ratio (%) n = 2 [2]: 0.0%

Molecule: CCOc1cncc(-c2cc(CN3CCN(c4ccc(C(=O)NS(=O)(=O)C(C)(C)C)cc4)CC3)cc(OCC)c2)c1 [B2L056-01]
- ASMS ratio (%) (n = 1): 0.0%
- ASMS ratio (%) (n = 2): 0.0%

Molecule: CCOc1cncc(C#Cc2ccccc2C(=O)N2CCN(c3ccc(C(=O)NS(C)(=O)=O)nn3)CC2)c1 [B2I008-01, 6-[4-[2-[2-(5-Ethoxypyridin-3-yl)ethynyl]benzoyl]piperazin-1-yl]-N-methylsulfonylpyridazine-3-carboxamide]
- ASMS ratio (%) n = 1 (AS-MS, mixture library, Bcl-2): 0.0%
- ASMS ratio (%) n = 2 (AS-MS, mixture library, Bcl-2): 0.0%

Molecule: CCOc1cncc(-c2ccccc2CCC(=O)N2CCN(c3ccc(C(=O)NCC45CC6CC(CC(C6)C4)C5)cc3)CC2)c1 [B1A034-01, N-(1-Adamantylmethyl)-4-[4-[3-[2-(5-ethoxypyridin-3-yl)phenyl]propanoyl]piperazin-1-yl]benzamide]
- ASMS ratio (%) n = 1 [1]: 5.2%
- ASMS ratio (%) n = 2 [1]: −3.2%

Molecule: CCOc1cncc(-c2cc(C(=O)N3CCN(c4ccc(C(=O)Nc5ccc(OC)cc5)cc4)CC3)cc(C(F)(F)F)c2)c1 [B1O040-01, 4-[4-[3-(5-Ethoxypyridin-3-yl)-5-(trifluoromethyl)benzoyl]piperazin-1-yl]-N-(4-methoxyphenyl)benzamide]
- ASMS ratio (%) n = 1 [2]: 1.8%
- ASMS ratio (%) n = 2 [2]: 0.3%

Molecule: CCOc1cncc(-c2cc(CN3CCN(c4ccc(C(=O)NS(=O)(=O)c5ccc(NCCSc6ccccc6)c(C(F)(F)F)c5)nn4)CC3)cc(OC(F)(F)F)c2)c1 [B2R090-01, 6-[4-[[3-(5-Ethoxypyridin-3-yl)-5-(trifluoromethoxy)phenyl]methyl]piperazin-1-yl]-N-[4-(2-phenylsulfanylethylamino)-3-(trifluoromethyl)phenyl]sulfonylpyridazine-3-carboxamide]
- ASMS ratio (%) (n = 1): 22.4%
- ASMS ratio (%) (n = 2): 5.3%

Molecule: CCOc1cncc(-c2ccc(CN3CCN(c4ccc(C(=O)NCC(F)(F)F)cc4)CC3)c(OC)c2)c1 [B1K054-01, 4-[4-[[4-(5-Ethoxypyridin-3-yl)-2-methoxyphenyl]methyl]piperazin-1-yl]-N-(2,2,2-trifluoroethyl)benzamide]
- ASMS ratio (%) n = 1 [1]: 0.0%
- ASMS ratio (%) n = 2 [1]: 0.0%

Molecule: CCOc1cccc(-c2cc(CN3CCN(c4ccc(C(=O)N(CC)CC)cc4)CC3)cc(C(F)(F)F)c2)c1 [B4J061-01, 4-[4-[[3-(3-Ethoxyphenyl)-5-(trifluoromethyl)phenyl]methyl]piperazin-1-yl]-N,N-diethylbenzamide]
- ASMS ratio (%) n = 1 (AS-MS, mixture library, Bcl-2): 1.6%
- ASMS ratio (%) n = 2 (AS-MS, mixture library, Bcl-2): −1.8%

Molecule: CCOc1cccc(-c2ccc(CN3CCN(c4ccc(C(=O)Nc5ccc(OC)cc5)nn4)CC3)c(CC)c2)c1 [B1O075-01, 6-[4-[[4-(3-Ethoxyphenyl)-2-ethylphenyl]methyl]piperazin-1-yl]-N-(4-methoxyphenyl)pyridazine-3-carboxamide]
- ASMS ratio (%) n = 1 [2]: 9.3%
- ASMS ratio (%) n = 2 [2]: 0.8%

Molecule: CCOc1cncc(-c2ccccc2CCC(=O)N2CCN(c3ccc(C(=O)NCC45CC6CC(CC(C6)C4)C5)nn3)CC2)c1 [B1A012-01, N-(1-Adamantylmethyl)-6-[4-[3-[2-(5-ethoxypyridin-3-yl)phenyl]propanoyl]piperazin-1-yl]pyridazine-3-carboxamide]
- ASMS ratio (%) n = 1 [1]: 0.0%
- ASMS ratio (%) n = 2 [1]: 0.0%

Molecule: CCOc1cccc(-c2cc(CN3CCN(c4ccc(C(=O)NS(=O)(=O)C(C)(C)C)nn4)CC3)cc(OC(C)C)c2)c1 [B2L083-01, N-tert-Butylsulfonyl-6-[4-[[3-(3-ethoxyphenyl)-5-propan-2-yloxyphenyl]methyl]piperazin-1-yl]pyridazine-3-carboxamide]
- ASMS ratio (%) (n = 1): 0.0%
- ASMS ratio (%) (n = 2): 0.0%

Molecule: CCOc1cccc(-c2csc(CN3CCN(c4ccc(C(=O)NS(=O)(=O)c5ccc(NCCSc6ccccc6)c(C(F)(F)F)c5)nn4)CC3)c2)c1 [B2R093-01, 6-[4-[[4-(3-Ethoxyphenyl)thiophen-2-yl]methyl]piperazin-1-yl]-N-[4-(2-phenylsulfanylethylamino)-3-(trifluoromethyl)phenyl]sulfonylpyridazine-3-carboxamide]
- ASMS ratio (%) (n = 1): 56.5%
- ASMS ratio (%) (n = 2): 0.0%

Molecule: CCOc1cncc(C#Cc2ccccc2CN2CCN(c3ccc(C(=O)NS(C)(=O)=O)cc3)CC2)c1 [B2I070-01, 4-[4-[[2-[2-(5-Ethoxypyridin-3-yl)ethynyl]phenyl]methyl]piperazin-1-yl]-N-methylsulfonylbenzamide]
- ASMS ratio (%) (n = 2): 0.0%

Molecule: CCOc1cccc(-c2csc(C(=O)N3CCN(c4ccc(C(=O)N(CC)CC)cc4)CC3)c2)c1 [B4J023-01, 4-[4-[4-(3-Ethoxyphenyl)thiophene-2-carbonyl]piperazin-1-yl]-N,N-diethylbenzamide]
- ASMS ratio (%) n = 1 [2]: 3.5%
- ASMS ratio (%) n = 2 [2]: −3.4%

Molecule: CCOc1cccc(-c2ccc(CN3CCN(c4ccc(C(=O)NS(=O)(=O)CCC(F)(F)F)cc4)CC3)cc2C)c1 [B2N047-01, 4-[4-[[4-(3-Ethoxyphenyl)-3-methylphenyl]methyl]piperazin-1-yl]-N-(3,3,3-trifluoropropylsulfonyl)benzamide]
- ASMS ratio (%) (n = 1): 0.0%
- ASMS ratio (%) (n = 2): 0.0%
